Measurements published in patent US20120100184A1, “SYNTHESIS OF 1-AMINO-1,3,3,5,5,-CYCLOHEXANE MESYLATE” (MERZ PHARMA GmbH & CO.KGaA, priority 2009, published 2012).

Tests used:
[1] = Particle size distribution of neramexane mesylate crystals by laser diffraction; format: physicochemical; details: for d(10) / d(50) / d(90): Example 17, re-crystallized from anisole; for PSD d(10) / PSD d(50) / PSD d(90): re-crystallization step (iii) and seeding step (iv)
Experimental: The particle size is determined according to the known methods employing laser diffraction as already mentioned above, and determining the distribution modal sizes.
Particle size distribution ranges as determined by laser diffraction with mesylates obtained in anisole, cumene, methyl ethyl ketone, methyl isobutyl ketone and n-butyl acetate by performing at least re-crystallization step (iii) and seeding step (iv) are disclosed in the following table:
The crystals obtained in the process of Example 1 are analysed regarding the crystal size and size distribution. A commercial Malvern Mastersizer 2000 is employed. The samples are dispersed in rapeseed oil.

[2] = mesylate of the prior art (Schweizer, Dissertation, page 200); cited from earlier work
[3] = Amount of solvent necessary to dissolve 1 g neramexane mesylate (re-crystallization step (iii)); format: physicochemical
Experimental: 20 ml cumene are necessary to dissolve 1 g neramexane mesylate at 104° C. The mixture is cooled down to ambient temperature. The re-crystallized product is isolated via centrifugation. The obtained crystals are columnar.
22 ml methyl ethyl ketone are necessary to dissolve 1 g neramexane mesylate at 80° C. The mixture is cooled down to ambient temperature. The re-crystallized product is isolated via centrifugation. The obtained crystals have the form of plates in admixture with columnar crystals.
20 ml methyl isobutyl ketone are necessary to dissolve 1 g neramexane mesylate at 100° C. The mixture is cooled down to ambient temperature. The re-crystallized product is isolated via centrifugation. The obtained crystals are columnar.
23 ml n-butyl acetate are necessary to dissolve 1 g neramexane mesylate at 100° C. The mixture is cooled down to ambient temperature. The re-crystallized product is isolated via centrifugation. The obtained crystals are columnar.
10 ml anisole are necessary to dissolve 1 g neramexane mesylate at 87° C. The mixture is cooled down to ambient temperature. The re-crystallized product is isolated via centrifugation. The obtained crystals are columnar.
20 ml tetrahydrofurane are necessary to dissolve 1 g neramexane mesylate at 60° C. The mixture is cooled down to 57° C., where 5% by weight neramexane mesylate is added. Subsequently, the mixture is cooled down to ambient temperature. The re-crystallized product is isolated via centrifugation in a yield of 89%. The obtained crystals have the form of plates.
20 ml toluene are necessary to dissolve 1 g neramexane mesylate at 80° C. The mixture is cooled down to ambient temperature. The re-crystallized product is isolated via centrifugation.
100 ml of the mixture of acetone and water are necessary to dissolve 1 g neramexane mesylate at 40° C. The mixture is cooled down to ambient temperature. The re-crystallized product is isolated via centrifugation in a yield of 66%.
55 ml of dichloromethane are necessary to dissolve 1 g neramexane mesylate at 40° C. The mixture is cooled down to ambient temperature. The re-crystallized product is isolated via centrifugation in a yield of 87%.

[4] = Example 3, anisole, 5% by weight seeds added
[5] = crystals of Example 1 (anisole, no seeds), Malvern Mastersizer 2000, dispersed in rapeseed oil
[6] = obtained in methyl ethyl ketone
[7] = obtained in methyl isobutyl ketone

SMILES: CC1(C)CC(C)(C)CC(C)(N)C1.CS(=O)(=O)O [neramexane mesylate, 1-amino-1,3,3,5,5-pentamethylcyclohexane mesylate]
- Particle size Distribution d(10) [1, 4]: 15 μm
- Particle size Distribution d(50) [1, 4]: 74 μm
- Particle size Distribution d(90) [1, 4]: 184 μm
- amount of particulate matter (particles having a diameter of 10 μm and less) ([1]; Example 17, anisole, 1%, 2.5%, 5% and 7.5% seeds, respectively): below 5 % by weight
- d(10) ([1]; 1% seeds): 69 μm
- d(50) ([1]; 1% seeds): 181 μm
- d(90) ([1]; 1% seeds): 377 μm
- d(10) ([1]; 2.5% seeds): 36 μm
- d(50) ([1]; 2.5% seeds): 119 μm
- d(90) ([1]; 2.5% seeds): 330 μm
- d(10) ([1]; 5% seeds): 24 μm
- d(50) ([1]; 5% seeds): 86 μm
- d(90) ([1]; 5% seeds): 215 μm
- d(10) ([1]; 7.5% seeds): 21 μm
- d(50) ([1]; 7.5% seeds): 76 μm
- d(90) ([1]; 7.5% seeds): 243 μm
- total amount of particles having a particle size of 10 μm and less ([1]; crystals of Example 1 (anisole, no seeds)): less than 1 % by weight
- Particle size Distribution d(10) [1, 5]: 52.3 μm
- Particle size Distribution d(50) [1, 5]: 129.4 μm
- Particle size Distribution d(90) [1, 5]: 264.5 μm
- PSD d(10) ([1]; obtained in anisole): 15 μm
- PSD d(50) ([1]; obtained in anisole): 74 μm
- PSD d(90) ([1]; obtained in anisole): 184 μm
- PSD d(10) ([1]; obtained in cumene): 12 μm
- PSD d(50) ([1]; obtained in cumene): 62 μm
- PSD d(90) ([1]; obtained in cumene): 152 μm
- PSD d(10) [1, 6]: 5 μm
- PSD d(50) [1, 6]: 79 μm
- PSD d(90) [1, 6]: 210 μm
- PSD d(10) [1, 7]: 11 μm
- PSD d(50) [1, 7]: 57 μm
- PSD d(90) [1, 7]: 137 μm
- PSD d(10) ([1]; obtained in n-butyl acetate): 12 μm
- PSD d(50) ([1]; obtained in n-butyl acetate): 58 μm
- PSD d(90) ([1]; obtained in n-butyl acetate): 136 μm
- particle population having a diameter of less than 10 μm [2]: approximately 20 % by weight
- solvent necessary to dissolve 1 g neramexane mesylate ([3]; anisole, 87° C.): 10 mL
- solvent necessary to dissolve 1 g neramexane mesylate ([3]; cumene, 104° C.): 20 mL
- solvent necessary to dissolve 1 g neramexane mesylate ([3]; dichloromethane, 40° C. (comparison)): 55 mL
- solvent necessary to dissolve 1 g neramexane mesylate ([3]; methyl ethyl ketone, 80° C.): 22 mL
- solvent necessary to dissolve 1 g neramexane mesylate ([3]; methyl isobutyl ketone, 100° C.): 20 mL
- solvent necessary to dissolve 1 g neramexane mesylate ([3]; mixture of acetone/water 99/1 (volume/volume), 40° C. (comparison)): 100 mL
- solvent necessary to dissolve 1 g neramexane mesylate ([3]; n-butyl acetate, 100° C.): 23 mL
- solvent necessary to dissolve 1 g neramexane mesylate ([3]; tetrahydrofurane, 60° C.): 20 mL
- solvent necessary to dissolve 1 g neramexane mesylate ([3]; toluene, 80° C. (comparison)): 20 mL
